Source: BindingDB's records for doi:10.1016/0922-4106(94)90065-5 (National Children's Medical Research Center, 1994)

Target: T1, Alpha-1B adrenergic receptor (Mesocricetus auratus, UniProt P18841)
T1 sequence (P18841 whole entry): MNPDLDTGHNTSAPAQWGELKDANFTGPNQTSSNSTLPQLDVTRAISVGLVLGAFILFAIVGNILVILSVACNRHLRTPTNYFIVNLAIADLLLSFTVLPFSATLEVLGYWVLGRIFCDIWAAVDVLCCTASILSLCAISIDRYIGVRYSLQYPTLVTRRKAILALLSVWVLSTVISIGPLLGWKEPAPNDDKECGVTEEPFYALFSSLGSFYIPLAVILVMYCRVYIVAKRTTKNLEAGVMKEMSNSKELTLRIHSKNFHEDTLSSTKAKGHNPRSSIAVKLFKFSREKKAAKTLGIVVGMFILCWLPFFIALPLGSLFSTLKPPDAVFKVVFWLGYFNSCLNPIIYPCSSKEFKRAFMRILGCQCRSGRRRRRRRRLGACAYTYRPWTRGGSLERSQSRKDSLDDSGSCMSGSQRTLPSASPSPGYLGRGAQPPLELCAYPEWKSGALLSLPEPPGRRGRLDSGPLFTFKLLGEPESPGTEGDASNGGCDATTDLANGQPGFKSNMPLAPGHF

SMILES	Ki
COc1ccc(OC)c(C(O)C(C)N)c1 (stereo not drawn)	> 10000 nM
CNCC(O)c1ccc(O)c(O)c1 (stereo not drawn) [EPINEPHRINE]	9400 nM
CC(C)NCC(O)c1ccc(O)c(O)c1 (stereo not drawn) [Isoproterenol,(+)]	> 10000 nM
COc1cccc(OC)c1OCCNCC1Oc2ccccc2OC1c1ccccc1 (stereo not drawn) [NSC_185453]	5.2 nM
NCC(O)c1ccc(O)c(O)c1 (stereo not drawn) [Noradrenaline,(+)]	920 nM
Cc1ccc(N(CC2=NCCN2)c2cccc(O)c2)cc1 [SMR000059054]	18 nM
COc1ccccc1N1CCN(CCCNc2c(C)c(=O)n(C)c(=O)n2C)CC1 [Urapidil-5-methyl]	180 nM
COC(=O)[C@@H]1[C@H]2C[C@H]3c4[nH]c5ccccc5c4CCN3C[C@@H]2CC[C@@H]1O [yohimbic acid methyl ester]	670 nM
